Reference: the METLIN SMRT retention time set (Domingo-Almenara et al. 2019)

Assay: gradient 5% acetonitrile 3 min, to 50% in 2 min, to 85% in 15 min, held 3 min, 100 µL/min
Conditions: column: Zorbax Extend-C18 2.1 x 50 mm; eluents: water / acetonitrile, 0.1% formic acid
In short: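 Each retention time is based on an adduct peak selected computationally and verified by manual inspection. Measurements used HPLC–quadrupole time-of-flight mass spectrometry in positive and negative ionization mode on mixtures of ~100 pure standards. Chromatography ran on a Zorbax Extend-C18 column (2.1 × 50 mm, 1.8 μm) at 100 μL/min with water and acetonitrile, each containing 0.1% formic acid, and dead and dwell volumes of 40 μL and 900 μL.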

Row | Compound | RP-LC retention time
1 | CCNc1cc(N2CCC(CCC(=O)N3CCCN(c4ncccn4)CC3)CC2)ncn1 | 596 s
2 | O=C1CC(c2nc(-c3ccc4c(c3)OCO4)no2)CN1c1ccc(Cl)cc1 (stereo not given) | 1030 s
3 | CCN1C(=O)C(C)(C(=O)Nc2cc(OC)cc(OC)c2)Oc2cccnc21 (stereo not given) | 868 s
4 | Cc1nn(-c2nc(-c3ccc(Cl)cc3)cs2)c(C)c1CC(=O)N1CCc2ccccc2C1 | 1330 s
5 | CCn1cc(-c2ccc(Cl)cc2)cc1C(=O)NCCN1CCOCC1 | 705 s
6 | COCC(=O)N1CCc2c(c(-c3nc(C4CC4)no3)nn2C)C1 | 653 s
7 | Cc1cc(C)nc(Nc2nc(C(=O)NCCn3nc(-c4ccco4)ccc3=O)cs2)n1 | 693 s
8 | Cc1cc(OCC(=O)Nc2cccc(F)c2)nc(N2CCN(c3ccccc3)CC2)n1 | 871 s
9 | Cc1nc2cccnc2n1-c1ccc(C(=O)NCCCN2CCCC2=O)cc1 | 580 s
10 | CC(C)c1cc(C(=O)NCc2ccco2)nc2cc(-c3ccccn3)nn12 | 629 s
11 | COc1ccc(C(=O)N2CCC3(C2)C(=O)Nc2ccc(OC)cc23)c(OC)c1 (stereo not given) | 692 s
12 | Cc1cc(C)n(-c2cc(N3CCCC(C(=O)Nc4cc(C)on4)C3)ncn2)n1 (stereo not given) | 762 s
13 | O=C(Cn1cccc1-c1nc(-c2ccccc2)no1)Nc1ccc2c(c1)CCC2 | 1100 s
14 | O=S(=O)(Cc1ccccc1)N1CCC(n2c(-c3ccoc3)nc3cccnc32)C1 (stereo not given) | 787 s
15 | Cc1cc(N2CCOCC2)nc(N2CCN(C(=O)c3ccc(Br)cc3)CC2)n1 | 660 s
16 | CCN1C(=O)c2cccnc2Sc2cc(CNC(=O)c3ccccc3OC)ccc21 | 772 s
17 | O=C1CCN(C(=O)c2cccs2)CCOCCN1 | 585 s
18 | Cc1cc(C(=O)N(CCc2cccs2)Cc2cccnc2)c(C)o1 | 619 s
19 | Cc1cccc(NC(=O)N2CCCC2c2cc(C)on2)c1 (stereo not given) | 748 s
20 | CC(C)C(=O)Nc1ccc(C2(C(=O)NCCN3CCc4ccccc4C3)CCCCC2)cc1 | 732 s
21 | CC1(C(=O)NCc2ccc(F)cc2)CCCN(C(=O)Nc2ccc3c(c2)OCCO3)C1 (stereo not given) | 792 s
22 | Cc1nc2nc(-c3ccccc3)nn2c(C)c1CC(=O)N1CCC(C)CC1 | 846 s
23 | Cc1cc(NCc2ccccn2)n2c(nc3ccccc32)c1C#N | 590 s

Row | Compound | RP-LC retention time
24 | Cc1ccc(C)c(NC(=O)Cn2cccc2-c2nnc(-c3ccccc3)o2)c1 | 1020 s
25 | COc1ccc(Cl)cc1N1CC(c2nc(-c3cccs3)no2)CC1=O (stereo not given) | 930 s
26 | CC(C)(C)OC(=O)COC(=O)c1cn(-c2cccc(F)c2)c(=O)c2ccccc12 | 1160 s
27 | CCc1ccc(S(=O)(=O)N2CCC(C(=O)NCc3csc(-c4ccccc4)n3)CC2)cc1 | 999 s
28 | CC1(C(=O)NC2CCCCC2)CN(S(C)(=O)=O)CC(=O)N1c1ccc(Cl)cc1 (stereo not given) | 860 s
29 | CC(CCc1ccccc1)NC(=O)Cc1csc2nc(-c3ccccc3)cn12 (stereo not given) | 850 s
30 | CN(Cc1ccco1)C(=O)c1c2c(nc3ccccc13)C(=O)N(C1CCCCC1)C2 | 844 s
31 | O=C(c1ccccn1)N1CCN(c2cc(-c3cccs3)[nH]n2)CC1 | 648 s
32 | CCn1c(C(=O)NCCc2ccc(OC)c(OC)c2)cc2sc(Cl)cc21 | 1030 s
33 | O=C(NC1CCCC1)c1cccn1Cc1noc(-c2ccc(Cl)cc2)n1 | 1100 s
34 | CCCCC(=O)N1CCC2(C1)C(=O)N(C)c1ccccc12 (stereo not given) | 743 s
35 | O=C(Cc1c(F)cccc1Cl)NC1CCN(c2cc(-c3ccc(F)cc3)[nH]n2)C1 (stereo not given) | 760 s
36 | CC(C)(C)NC(=O)c1ccc(C(=O)NC(C)(C)C)cc1 | 840 s
37 | Cc1ccc(CN(Cc2cc(=O)n3cc(Cl)ccc3n2)CC(C)C)cc1 | 624 s
38 | COc1ccc(NC(=O)Cn2nc3cc(-c4ccc(OC)cc4)nc(C)n3c2=O)cc1 | 872 s
39 | Cc1nc2cc(N3CC(C(=O)NCc4ccccc4Cl)CC3=O)ccc2o1 (stereo not given) | 734 s
40 | Cc1cc(CN2CCC(CNC(=O)C(=O)NCc3ccccc3Cl)CC2)c(C)o1 | 592 s
41 | CN(CC1CCOCC1)C(=O)Nc1ccccc1F | 720 s
42 | Cn1cc(CCN2CCC(C(=O)N3CCCCCC3)CC2)c2cccnc21 | 595 s
43 | CNc1oc(-c2ccco2)nc1S(=O)(=O)c1ccc(F)cc1 | 809 s
44 | CCSc1ccccc1C(=O)NCCS(=O)(=O)N1CCc2ccccc2C1 | 862 s
45 | O=C(Nc1nnc(C2CC(=O)N(c3ccc(F)cc3)C2)o1)c1ccc(C(F)(F)F)cc1 (stereo not given) | 830 s
46 | O=C(NCCCn1ncccc1=O)c1ccc(S(=O)(=O)N2CCCC2)cc1 | 621 s

Row | Compound | RP-LC retention time
47 | COCCNC(=O)C(=O)NCCc1cccc(OC)c1 | 650 s
48 | O=c1[nH]c2ccc(NCc3ccccc3)cc2[nH]1 | 571 s
49 | COc1ccc(S(=O)(=O)N2C[C@H]3CN(C(=O)Nc4ccccc4C)C[C@@H](C2)O3)cc1 | 771 s
50 | Cc1nnc(-c2cc3ccccc3n2Cc2ccccc2Cl)o1 | 1100 s
51 | COc1ccc(N2C(=O)C3N=NN(Cc4nc(-c5ccc(OC(C)C)cc5)no4)C3C2=O)cc1OC (stereo not given) | 841 s
52 | O=C(NC1CC1)c1ccc(-n2cccn2)nc1 | 653 s
53 | CCCS(=O)(=O)N1CCC(OCCOc2cccnc2)CC1 | 581 s
54 | Cc1ccc(-c2ncc(C(=O)Nc3ccc4c(c3)OCCO4)c(-c3ccncc3)n2)cc1 | 880 s
55 | Cc1noc2nc(C)n(CC(=O)Nc3ccccc3F)c(=O)c12 | 752 s
56 | CC(C)c1ccc(N2C(=O)CN(S(C)(=O)=O)CC2(C)C(=O)NCc2ccc(F)cc2)cc1 (stereo not given) | 836 s
57 | CN(C)CCNC(=O)C1CCN(c2nccnc2Sc2ccccc2)CC1 | 629 s
58 | COc1ccc(NC(=O)N2CCC3(CC2)NC(=O)c2ccccc2N3C)cc1 | 700 s
59 | O=S(=O)(c1cccc2cccnc12)N1CCc2nc(-c3ccc(Cl)cc3)ncc2C1 | 1140 s
60 | Cn1c(N2CCCN(C(=O)CCn3c(C4CCCCC4)nc4ccccc43)CC2)cc(=O)n(C)c1=O | 610 s
61 | O=C(NC1CCCCCCC1)C1CCN(S(=O)(=O)c2ccc(-c3noc(C4CC4)n3)cc2)CC1 | 1120 s
62 | O=C(NC1CCCCC1)C1CCCN(S(=O)(=O)Cc2ccccc2Cl)C1 (stereo not given) | 967 s
63 | COc1ccc(-c2nc(-c3ccc4nnn(C(C)C)c4c3)no2)cc1 | 1140 s
64 | CNC(=O)c1cc(-c2ccccc2)n(C)c1C | 591 s
65 | Cc1cc2c(c(=O)n(-c3ccc(F)cc3)c(=O)n2CC(=O)Nc2ccc3c(c2)OCO3)n1C | 807 s
66 | Cc1ccc(CNC(=O)c2cc3c(s2)N(C)CCC3)cc1 | 977 s
67 | COc1ccc(-c2noc(-c3ccc(N4CCN(c5ccccn5)CC4)nc3)n2)cc1 | 764 s
68 | Cc1noc(-c2nn(C)c3c2CN(C(=O)NCc2ccc(F)cc2)CC3)n1 | 699 s
69 | CCOc1cc(C(=O)N2CCN(c3cc(-c4ccc(Cl)cc4)[nH]n3)CC2)cc(OCC)c1OCC | 997 s

Row | Compound | RP-LC retention time
70 | CCC(NC(=O)c1nnc(-c2ccc(S(=O)(=O)N(C)C)cc2)o1)c1cccs1 (stereo not given) | 912 s
71 | CCOC(=O)Cc1ccc(NC(=O)N2CCSc3nc(C)cc(C)c32)cc1 | 735 s
72 | COCCNC(=O)C1CCN(S(=O)(=O)c2cc(-c3noc(C)n3)cs2)CC1 | 679 s
73 | c1cc2c(cc1-c1noc(CCC3CCCC3)n1)nnn2CCN1CCOCC1 | 780 s
74 | Cn1c(=O)c2c(NC(=O)c3ccco3)ccnc2n(C)c1=O | 757 s
75 | CCn1cc(S(=O)(=O)N2CC(N(C)Cc3cccnc3)C2)cn1 | 565 s
76 | COc1ccc(-c2nc3c(C)cccn3c2Nc2ccccc2C)cc1 | 755 s
77 | CCOc1ccccc1NS(=O)(=O)c1ccccc1-c1nc(-c2cccc(F)c2)no1 | 1280 s
78 | CC(C)N(C(=O)Cn1c(C2CC(=O)N(C(C)(C)C)C2)nc2ccccc21)c1ccccc1 (stereo not given) | 702 s
79 | O=C(Nc1cnn(-c2ncncc2N2CCSCC2)c1)C1CCCCC1 | 778 s
80 | CC(C)Sc1ccc(CC(=O)NCc2ccsc2)cc1 | 908 s
81 | COc1ccc(CCNC(=O)CSC2CCc3ccccc3NC2=O)cc1OC (stereo not given) | 708 s
82 | CC(C)(C)c1ccc(OCCCC(=O)Nc2nc(-c3ccccc3)cs2)cc1 | 1300 s
83 | O=S(=O)(c1cc(F)cc(F)c1)N1CCC(c2noc(-c3ccc(F)cc3)n2)CC1 | 1170 s
84 | Cc1ccc(Nc2cc(C)nc(N3CCN(C(=O)Nc4cccc(Cl)c4)CC3)n2)cc1 | 800 s
85 | Cc1ccc(Cn2c(=O)c3sccc3n(Cc3nc(-c4ccccc4)no3)c2=O)cc1 | 1150 s
86 | CN1C(=O)C(C)(C(=O)N2CCC(Cc3ccccc3)CC2)Oc2cccnc21 (stereo not given) | 1020 s
87 | CSc1cccc(NC(=O)N2CCC(CC(=O)N3CCCCC3)CC2)c1 | 789 s
88 | CN1CCN(C(=O)CN2C(=O)C3CCCCN3c3ccc(S(=O)(=O)N4CCCC4)cc32)CC1 (stereo not given) | 631 s
89 | CCOC(=O)c1c(C)[nH]c(C(=O)N2CCC(CC(=O)NC(C)c3ccccc3)CC2)c1C (stereo not given) | 780 s
90 | CCc1ccccc1S(=O)(=O)Cc1ccc(C(=O)N2CCN(c3ccccn3)CC2)o1 | 637 s
